row,Structure (SMILES),melting point [°C]
1,COc1cc2c(cc1OC)C(=O)C(N1CCC(n3c(=O)[nH]c4ccccc43)CC1)CC2 (stereo not given),238 to 239
2,COc1cc(NC(=O)CCN2CCCN(CCC(=O)Nc3cc(OC)c(OC)c(OC)c3)CC2)cc(OC)c1OC,135 to 137
3,CC(C)(C)OC(=O)NCCOC(=O)COc1ccc(CCCCNC(N)=NC(=O)c2nc(Cl)c(N)nc2N)cc1,80 to 82
4,CCN(CC)CCOc1ccc(C(=O)c2c(-c3ccccc3)oc3ccccc23)cc1,125 to 127
5,C=CCOc1cnc(SC)nc1,41 to 42
6,COC(=O)c1sc2c(c1OC(C)C)CN(C(=O)OC(C)(C)C)CC2,76 to 81
7,Cc1ccc(C)c(S(=O)(=O)c2ccc(F)c3ccccc23)c1,142 to 143
8,O=[N+]([O-])CS(=O)(=O)c1ccc2c(c1)OCO2,131 to 132
9,N#Cc1ccc(NC(=O)[C@H]2NCC[C@@H]2O)c2ccccc12,174 to 176
10,CCc1ccccc1NC(=O)c1ccccc1CN1C(=O)C2(COc3cc4c(cc32)CCO4)c2ccccc21 (stereo not given),184 to 186
11,CCCCCCCCCCCCCCCCCCON1C(=O)c2ccccc2C1=O,82 to 88
12,CSc1ccc(C2=CC(=O)C3(CCOCC3)O2)cc1,135 to 138
13,COCCCC(=O)c1cc(C(=O)O)c2cc(Cc3ccc(F)cc3)cnc2c1O,226 to 228
14,CCN(CC)CCSC1=C(C#N)C(c2cccnc2)(c2ccc(OC)c(OC)c2)C(=O)N1 (stereo not given),133 to 135
15,Cc1ccc(-c2[nH]nc3c2C(=O)c2c(NC(N)=O)cccc2-3)s1,> 280
16,CC(=O)Oc1c(C2(OC(C)=O)C(=O)c3ccccc3C2=O)ccc(Cl)c1Cl,129 to 136
17,COc1ccc(C2(OC)OC2(C)C)cc1 (stereo not given),41 to 43
18,COc1ccc(N2CCN(c3cccc(C)c3)CC2)nn1,137
19,CCOC(=O)C(CNC(=O)CSC(=O)c1ccccc1)NC(=O)CSC(=O)c1ccccc1 (stereo not given),130 to 131
20,CCCCCCCCOC(=O)n1c(-c2cscn2)nc2ccccc21,66 to 67.5
21,CC(=O)c1cc2c(s1)CCCc1cc(=O)n(-c3ccc(Cl)cc3)nc1-2,164 to 166
22,Cc1cc(CCCCCOc2ccc(C3=NCCO3)cc2)no1,91 to 92
23,Cc1ccc(CN(C)C(=O)c2cnn(C)c2C(=O)Nc2ccn3nc(-c4ccccc4)nc3c2)cn1,110 to 150
24,CCc1nc2c(n1C(CC)CC)C(=O)N(C)C(C)N2c1ccc(Cl)cc1Cl (stereo not given),135 to 136

row,Structure (SMILES),melting point [°C]
1,COC(=O)c1c(Cl)cc(Cl)cc1NC(=O)CSc1ccc(NC(=O)c2cccnc2)cc1,156 to 159
2,CCCCCCCCCCCCC1=CC(=O)c2c(Cl)cccc2C1=O,57.5 to 58.5
3,O=C(O)CC[C@@H](C(=O)OCc1ccccc1)n1c2ccccc2c2ccccc21,100
4,Nc1nccnc1C=O,110 to 114
5,O=C(Cc1ccc(F)cc1)c1ccc(OC(F)F)cc1,50 to 56
6,Clc1ccc(C2(Cn3ccnc3)OCC(COc3ccc(N4CCN(c5ccc(-n6cnnn6)cc5)CC4)cc3)O2)c(Cl)c1 (stereo not given),201
7,CC(C#N)(CCc1ccccc1C(F)(F)F)NC(=O)c1ccc(OC(F)(F)F)cc1 (stereo not given),87 to 89
8,Cc1ncsc1C(C)(O)c1ccco1 (stereo not given),127 to 128
9,O=C(O)CCC(=O)C(=O)N1CCCC1,101 to 102
10,CCCCCCC1CC(c2ccc(CCCC)cc2)C(=O)O1 (stereo not given),37.7
11,Cc1ccc2cc(NS(C)(=O)=O)ccc2n1,151 to 153
12,O=C(CC(c1ccccc1)(c1ccccc1)c1ccccc1)N1CCC(O)(Cc2ccccc2)CC1,150 to 166
13,O=C(CC(c1cc(F)ccc1F)S(=O)(=O)c1ccc(Cl)cc1)N1CCCC1 (stereo not given),122 to 125
14,Cc1coc2ncnc(N)c12,240 to 242
15,O=C(CCCCl)Nc1ccc2c(c1NC(=O)CCCCl)C(=O)c1ccccc1C2=O,154 to 155
16,CN(C)C=C(C#N)C(=O)NCc1ccccc1Cl,144 to 146
17,CCOC(=O)c1ncn2c1[C@@H]1CCN1C(=O)c1sccc1-2,188 to 191
18,O=C(Cc1ccccc1)c1ccc(SC(F)F)cc1,42 to 45
19,COc1cc(COc2nn(Cc3ccccc3)cc2C=O)ccc1OCc1nc(-c2ccco2)oc1C,139 to 140
20,CC(C)(C)NC(=O)[C@@H]1CC(OCCCCF)CN1C(=O)[C@@H](O)[C@H](Cc1ccccc1)NC(=O)[C@H](CC(N)=O)NC(=O)OCc1ccccc1 (stereo not given in full),68 to 71
21,CC(C(=O)NCCO)c1ccc(C(=O)c2cccs2)cc1 (stereo not given),87.1
22,CCCc1cn(C)cc(-c2ccc(Cl)c(C(F)(F)F)c2)c1=O,141 to 142
23,CC(=O)C(=CNN1C=CC=NC1c1ccncc1)C(C)=O (stereo not given),182 to 183
24,CCC(=O)c1cc(C2(c3cccc(-c4cncnc4)c3)N=C(N)N(C)C2=O)cs1 (stereo not given),167 to 172

row,Structure (SMILES),melting point [°C]
1,Cn1nccc1-c1ccc(-c2cnc3[nH]cc(C(=O)C(C)(C)C)c3n2)cc1,257 to 258
2,Cc1oncc1C(=O)c1ccccc1[N+](=O)[O-],104 to 106
3,O=C1CCC(c2ccc(NC(=O)C3CC3)cc2)=NN1,272 to 273
4,COc1ccccc1C=Cc1nc2c([nH]1)c(=O)n(C)c(=O)n2C,> 300
5,CSCCNC(=O)c1cccc(-c2cccc(Oc3cc(Cl)cc(Cl)c3)n2)c1,123 to 124
6,O=C(Nc1ccc(S(=O)(=O)c2ccccc2)cc1)N[C@@H](Cc1ccc(NC(=O)c2c(Cl)cccc2Cl)cc1)C(=O)O,222
7,CN(C)c1cc(CC(C#N)=CNc2ccccc2)cc(N(C)C)c1C(C)(C)C,150
8,CC(c1oc2ccccc2c(=O)c1-c1cccc(F)c1)n1nc(-c2ccc(Oc3ccccc3)cc2)c2c(N)ncnc21 (stereo not given),218 to 220
9,CCOC(C)(C)C#Cc1ncn2c1CN(C)C(=O)c1cc(F)ccc1-2,136 to 138
10,Cc1ccc(Cl)cc1NC(=S)Nc1ccn(C)n1,217 to 218
11,Cc1c(C(=O)O)cnn1-c1ccc(OC(F)(F)F)cc1,176 to 178
12,CC1(C)C2CCC1(C)C(C(=O)OC(CSc1ccccc1)(C(=O)Nc1ccc(C#N)c(C(F)(F)F)c1)C(F)(F)F)C2 (stereo not given),140 to 143
13,CCCc1cc(Cl)c2oc(C(=O)OCc3ccccc3)c(C)c2c1O,119 to 120
14,COc1cc(N2CCC(N(C)C)C2)ccc1Nc1ncc2ccc(-c3ccccc3OC)n2n1 (stereo not given),70 to 78
15,CCCCNC(=O)N(Cc1ccccn1)C1CCN(c2ncnc3cc(OC)c(OC)cc23)CC1,162 to 164
16,CN1C(=O)CC2(c3ccccc3)CCCC3OC32C1=O (stereo not given),135 to 140
17,N#Cc1nn(-c2c(Cl)cccc2Cl)c(N)c1-c1ccco1,223
18,CNC(=O)c1[nH]c(C)c2c1CN=C(c1ccccc1F)c1cc(Cl)ccc1-2,252 to 255
19,CC12CCC3C(CCC4CCCCC43C)C1CC(F)C2=O (stereo not given),148 to 150
20,C#CCn1nnc2cc3c(=O)n(C(C)Cn4ncnn4)nnc3cc2c1=O (stereo not given),209 to 211
21,CCN(CCCc1c[nH]c2ccc(Cl)cc12)C1COc2c(F)ccc(C(N)=O)c2C1 (stereo not given),149 to 156
22,CCOc1ccc(OC)c2c1CCC=C2,59 to 60

# From a melting point compilation (Tetko et al.; mined from patent text by program, amines drawn as free bases though some values may be those of a salt)
